According to ChEMBL document CHEMBL2321675, “Irreversible inhibitors of cysteine proteases” (ACS Med Chem Lett, 2013):
pIC50: −log10 of the molar value.

Legend:
Caspase-10 = target: T1, Caspase-10 (Homo sapiens, UniProt Q92851); assay: Inhibition of caspase-10 (unknown origin)
T1 sequence (Q92851 whole entry): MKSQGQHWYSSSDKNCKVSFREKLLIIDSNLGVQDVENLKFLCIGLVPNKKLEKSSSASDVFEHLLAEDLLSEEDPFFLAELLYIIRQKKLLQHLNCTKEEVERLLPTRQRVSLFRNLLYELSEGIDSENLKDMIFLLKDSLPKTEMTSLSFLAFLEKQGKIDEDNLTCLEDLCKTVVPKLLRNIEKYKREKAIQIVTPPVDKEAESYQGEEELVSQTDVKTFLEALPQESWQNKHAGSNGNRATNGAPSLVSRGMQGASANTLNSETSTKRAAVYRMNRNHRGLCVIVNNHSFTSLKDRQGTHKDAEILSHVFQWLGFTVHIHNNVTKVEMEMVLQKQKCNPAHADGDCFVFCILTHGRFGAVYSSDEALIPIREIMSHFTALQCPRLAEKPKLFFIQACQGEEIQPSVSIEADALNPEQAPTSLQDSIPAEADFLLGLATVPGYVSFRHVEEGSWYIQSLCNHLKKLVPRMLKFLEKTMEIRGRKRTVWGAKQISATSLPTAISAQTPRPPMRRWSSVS

Caspase-3 = target: T2, Caspase-3 (Homo sapiens, UniProt P42574); assay: Inhibition of caspase-3 (unknown origin)
T2 sequence (P42574 whole entry): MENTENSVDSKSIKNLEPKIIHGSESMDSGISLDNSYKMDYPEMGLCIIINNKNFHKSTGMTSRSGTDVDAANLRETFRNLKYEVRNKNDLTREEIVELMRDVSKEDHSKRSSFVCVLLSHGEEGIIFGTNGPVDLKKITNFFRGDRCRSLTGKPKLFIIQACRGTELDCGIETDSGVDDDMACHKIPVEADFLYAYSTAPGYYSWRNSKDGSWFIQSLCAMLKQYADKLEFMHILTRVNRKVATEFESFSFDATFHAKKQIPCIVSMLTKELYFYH

Caspase-1 = target: T3, Caspase-1 (Homo sapiens, UniProt P29466); assay: Inhibition of caspase-1 (unknown origin)
T3 sequence (P29466 whole entry): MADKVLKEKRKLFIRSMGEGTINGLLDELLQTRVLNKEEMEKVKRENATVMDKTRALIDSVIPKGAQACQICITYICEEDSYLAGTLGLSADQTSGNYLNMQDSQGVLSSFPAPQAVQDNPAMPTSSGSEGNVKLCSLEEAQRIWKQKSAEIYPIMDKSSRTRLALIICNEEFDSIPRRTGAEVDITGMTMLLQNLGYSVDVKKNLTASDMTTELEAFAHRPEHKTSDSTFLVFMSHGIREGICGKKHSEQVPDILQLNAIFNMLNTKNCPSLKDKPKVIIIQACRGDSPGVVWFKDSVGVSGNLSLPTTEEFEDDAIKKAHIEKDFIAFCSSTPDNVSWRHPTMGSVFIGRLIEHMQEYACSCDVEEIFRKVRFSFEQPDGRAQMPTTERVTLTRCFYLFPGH

Caspase-9 = target: T4, Caspase-9 (Homo sapiens, UniProt P55211); assay: Inhibition of caspase-9 (unknown origin)
T4 sequence (P55211 whole entry): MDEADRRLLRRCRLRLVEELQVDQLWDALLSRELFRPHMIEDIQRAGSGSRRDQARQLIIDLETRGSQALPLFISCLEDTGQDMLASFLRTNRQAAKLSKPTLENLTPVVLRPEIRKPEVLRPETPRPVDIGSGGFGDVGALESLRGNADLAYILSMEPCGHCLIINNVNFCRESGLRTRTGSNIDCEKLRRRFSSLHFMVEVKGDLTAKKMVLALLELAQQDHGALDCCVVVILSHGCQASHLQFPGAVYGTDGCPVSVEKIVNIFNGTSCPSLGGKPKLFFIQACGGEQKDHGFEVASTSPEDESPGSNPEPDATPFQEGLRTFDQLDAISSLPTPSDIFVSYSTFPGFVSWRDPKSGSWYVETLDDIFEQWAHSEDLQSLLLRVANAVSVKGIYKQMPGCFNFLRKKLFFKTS

Caspase-8 = Caspase-8 (Homo sapiens, UniProt Q14790); assay: Inhibition of caspase-8 (unknown origin)
Caspase-2 = target: T5, Caspase-2 (Homo sapiens, UniProt P42575); assay: Inhibition of caspase-2 (unknown origin)
T5 sequence (P42575 whole entry): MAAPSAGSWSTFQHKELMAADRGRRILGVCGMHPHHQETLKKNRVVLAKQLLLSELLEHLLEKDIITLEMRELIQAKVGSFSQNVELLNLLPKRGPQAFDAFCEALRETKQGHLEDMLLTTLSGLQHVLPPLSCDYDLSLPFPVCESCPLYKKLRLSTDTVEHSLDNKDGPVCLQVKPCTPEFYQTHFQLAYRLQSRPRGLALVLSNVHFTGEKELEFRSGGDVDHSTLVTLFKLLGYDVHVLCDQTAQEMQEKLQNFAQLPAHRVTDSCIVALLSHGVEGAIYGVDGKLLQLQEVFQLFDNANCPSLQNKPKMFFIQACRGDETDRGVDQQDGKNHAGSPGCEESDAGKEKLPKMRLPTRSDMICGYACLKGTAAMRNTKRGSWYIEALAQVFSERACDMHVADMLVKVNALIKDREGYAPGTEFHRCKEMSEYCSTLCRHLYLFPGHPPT

Caspase-7 = target: T6, Caspase-7 (Homo sapiens, UniProt P55210); assay: Inhibition of caspase-7 (unknown origin)
T6 sequence (P55210 whole entry): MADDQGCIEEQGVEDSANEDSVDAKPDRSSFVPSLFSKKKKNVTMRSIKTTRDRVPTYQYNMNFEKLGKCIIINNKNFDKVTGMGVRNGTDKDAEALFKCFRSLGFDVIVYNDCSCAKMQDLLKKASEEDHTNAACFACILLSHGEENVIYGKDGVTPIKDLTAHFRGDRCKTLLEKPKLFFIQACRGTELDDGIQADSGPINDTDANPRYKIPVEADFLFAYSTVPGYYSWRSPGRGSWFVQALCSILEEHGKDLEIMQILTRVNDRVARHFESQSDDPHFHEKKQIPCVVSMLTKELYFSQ

Caspase-4 = target: T7, Caspase-4 (Homo sapiens, UniProt P49662); assay: Inhibition of caspase-4 (unknown origin)
T7 sequence (P49662 whole entry): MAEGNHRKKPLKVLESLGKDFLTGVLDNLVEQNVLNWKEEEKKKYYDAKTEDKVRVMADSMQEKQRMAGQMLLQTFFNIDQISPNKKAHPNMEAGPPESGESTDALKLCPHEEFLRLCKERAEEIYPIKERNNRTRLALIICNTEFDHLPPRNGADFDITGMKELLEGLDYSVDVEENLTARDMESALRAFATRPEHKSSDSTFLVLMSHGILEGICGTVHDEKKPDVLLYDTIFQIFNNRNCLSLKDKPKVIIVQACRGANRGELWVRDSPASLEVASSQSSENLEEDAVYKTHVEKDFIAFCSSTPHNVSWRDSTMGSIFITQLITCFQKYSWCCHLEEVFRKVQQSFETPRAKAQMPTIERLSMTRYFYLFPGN

Caspase-6 = target: T8, Caspase-6 (Homo sapiens, UniProt P55212); assay: Inhibition of caspase-6 (unknown origin)
T8 sequence (P55212 whole entry): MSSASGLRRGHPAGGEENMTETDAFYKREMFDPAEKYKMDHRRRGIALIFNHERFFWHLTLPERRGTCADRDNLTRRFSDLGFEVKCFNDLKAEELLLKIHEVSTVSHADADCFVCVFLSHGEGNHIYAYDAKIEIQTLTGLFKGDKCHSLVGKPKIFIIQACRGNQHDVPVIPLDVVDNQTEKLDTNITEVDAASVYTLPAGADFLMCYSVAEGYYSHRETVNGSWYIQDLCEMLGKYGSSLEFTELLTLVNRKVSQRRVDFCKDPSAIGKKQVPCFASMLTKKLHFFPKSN

Caspase-5 = target: T9, Caspase-5 (Homo sapiens, UniProt P51878); assay: Inhibition of caspase-5 (unknown origin)
T9 sequence (P51878 whole entry): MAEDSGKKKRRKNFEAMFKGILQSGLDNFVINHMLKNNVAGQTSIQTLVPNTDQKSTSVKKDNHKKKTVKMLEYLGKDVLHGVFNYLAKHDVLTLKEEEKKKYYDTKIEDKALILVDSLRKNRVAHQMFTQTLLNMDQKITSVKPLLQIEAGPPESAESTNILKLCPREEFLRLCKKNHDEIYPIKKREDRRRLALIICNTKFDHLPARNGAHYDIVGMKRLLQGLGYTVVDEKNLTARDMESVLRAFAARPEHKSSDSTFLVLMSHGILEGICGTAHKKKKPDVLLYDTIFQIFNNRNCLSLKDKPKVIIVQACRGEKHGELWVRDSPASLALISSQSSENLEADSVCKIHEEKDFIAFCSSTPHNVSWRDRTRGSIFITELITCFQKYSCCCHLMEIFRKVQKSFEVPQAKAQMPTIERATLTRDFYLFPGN

Caspase-8, sequence (Q14790 217-374 limits assumed): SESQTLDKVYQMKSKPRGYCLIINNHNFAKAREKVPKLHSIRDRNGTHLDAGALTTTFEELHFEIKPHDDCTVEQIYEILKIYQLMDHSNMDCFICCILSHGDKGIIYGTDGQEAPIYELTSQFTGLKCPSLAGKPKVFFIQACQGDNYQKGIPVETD
Caspase-8, sequence (Q14790 385-479 limits assumed): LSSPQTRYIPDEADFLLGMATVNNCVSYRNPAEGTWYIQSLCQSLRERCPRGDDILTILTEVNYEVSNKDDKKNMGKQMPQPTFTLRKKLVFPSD

SMILES	pIC50 (Caspase-10)	pIC50 (Caspase-3)	pIC50 (Caspase-1)	pIC50 (Caspase-9)	pIC50 (Caspase-8)	pIC50 (Caspase-2)	pIC50 (Caspase-7)	pIC50 (Caspase-4)	pIC50 (Caspase-6)	pIC50 (Caspase-5)
CC(C)(C)[C@@H](NC(=O)c1ccc(N)c(Cl)c1)C(=O)N1CCC[C@H]1C(=O)N[C@H](/C=C/S(C)(=O)=O)CC(=O)O	5.57	< 4.00	7.70	5.64	4.89	< 4.00	4.61	7.05	< 4.00	6.25
CC(C)(C)[C@H](NC(=O)[C@H](CC(=O)O)NC(=O)OCc1ccccc1)C(=O)N1CC[C@H]1C(=O)N[C@H](/C=C/S(C)(=O)=O)CC(=O)O	6.38	6.55	4.88	5.96	5.39	4.88	6.30	5.25	< 4.00	4.45
CC[C@H](C)[C@H](NC(=O)[C@H](CCC(N)=O)NC(=O)[C@@H](NC(=O)OCc1ccccc1)C(C)C)C(=O)N[C@H](/C=C/S(C)(=O)=O)CC(=O)O	6.89	5.16	5.57	6.10	6.22	< 4.00	< 4.00	6.43	6.22	4.71
CC[C@H](C)[C@H](NC(=O)[C@H](CCC(N)=O)NC(=O)[C@H](Cc1c[nH]c2ccccc12)NC(=O)OCc1ccccc1)C(=O)N[C@H](/C=C/S(C)(=O)=O)CC(=O)O	5.48	5.19	7.59	5.76	5.23	< 4.00	4.63	6.74	4.00	6.12
CCOC(=O)/C=C/[C@H](CC(=O)O)NC(=O)[C@@H](NC(=O)[C@@H](NC(=O)[C@H](CC(=O)O)NC(=O)OCc1ccccc1)c1ccccc1)C(C)C						< 4.00			< 4.00	< 4.00
